Like-named read-outs stand apart in the source and are kept apart here.

The subject of assay [1] is Aβ42. The experiment in a line: γ-secretase-modulating activity, Method 2: Aβ42 Alphalisa in supernatant of SKNBE2 cells carrying APP 695-wild type (Table 3b). Type of assay: cell-based. The following applies: overnight. The procedure, abridged: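 Aβ42 in the supernatant was quantified by AlphaLISA sandwich (JRF/cAβ42/26 with JRF/AβN/25). Cells were wild-type APP695 SKNBE2, exposed to compound overnight at 37° C., 5% CO2. Data were normalised to untreated maximum and fitted with a four-parameter curve to give IC50.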

Assay [2] deals with Aβtotal. Description: γ-secretase-modulating activity, Method 2: Aβtotal Alphalisa in supernatant of SKNBE2 cells carrying APP 695-wild type (Table 3b). Type of assay: cell-based. The following applies: overnight, read-out: IC50 Aβtot. The gist of the method: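 Secreted Aβtotal was quantified by AlphaLISA pairing an N-terminal antibody (JRF/AβN/25) with biotinylated mid-region 4G8. Wild-type APP 695 SKNBE2 cells received serially varied compound overnight at 37 °C; IC50 came from a 4-parameter nonlinear regression of percent of control against log dose.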

Take `COc1cc(-c2nc3n(n2)CCCC3c2cccc(OC(F)(F)F)c2)ccc1-n1cnc(C)c1` (stereo not drawn) [Compound 267]: the IC50 in assay [1] is 49 nM; in assay [2] it was over 10000 nM.
For `COc1cc(-c2nc3n(n2)CCCC3c2ccc(C(F)(F)F)cc2)ccc1-n1cnc(C)c1` (stereo not drawn) [Compound 268] the same measures were 141 nM and over 10000 nM.
Take `COc1cc(-c2nc3n(n2)CCCC3(O)c2ccc(F)cc2C)ccc1-n1cnc(C)c1` (stereo not drawn) [Compound 269]: the IC50 in assay [1] (Homo sapiens) is 148 nM; in assay [2] (Homo sapiens) it was over 10000 nM.
For `COc1cc(-c2nc3n(n2)CCCC32CCCCC2)ccc1-n1cnc(C)c1` [Compound 270], the IC50 was 170 nM in assay [1] and over 10000 nM in assay [2].
Consider `COc1cc(-c2nc(Oc3ccccc3Cl)n(C)n2)ccc1-n1cnc(C)n1` [Compound 272], for which the IC50 in assay [1] was 7590 nM; in assay [2], over 10000 nM.
Take `COc1cc(-c2nc(Nc3cccc(C(F)(F)F)c3)n(C)n2)ccc1-n1cnc(C)n1` [Compound 273]: the 50% inhibitory concentration (IC50) in assay [1] worked out at 155 nM; in assay [2] it was 10000 nM.
As to `COc1cc(-c2nc3n(n2)CCC(c2ccccc2C(F)(F)F)N3)ccc1-n1cnc(C)c1` (stereo not drawn) [Compound 274], the IC50 in assay [1] (Homo sapiens) amounted to 155 nM; in assay [2] (Homo sapiens), 8710 nM.
For `COc1cc(-c2nc3n(n2)CCN(C(C)=O)C3c2ccccc2C(F)(F)F)ccc1-n1cnc(C)c1` (stereo not drawn) [Compound 276], the IC50 in assay [1] (Homo sapiens) was 832 nM; in assay [2] (Homo sapiens), over 10000 nM.
Turning to `COc1cc(-c2nc3n(n2)CCN(C(C)=O)C3c2cccc(C(F)(F)F)c2)ccc1-n1cnc(C)c1` (stereo not drawn) [Compound 277], the IC50 in assay [1] is 661 nM; in assay [2], over 10000 nM.
For the compound `COc1cc(-c2nc3n(n2)CCOC3c2ccccc2C(F)(F)F)ccc1-n1cnc(C)c1` (stereo not drawn) [Compound 279], the IC50 in assay [1] (Homo sapiens) is 62 nM; in assay [2] (Homo sapiens) it was over 10000 nM.
In the case of `COc1cc(-c2nc3n(n2)CCOC3c2ccc(F)cc2C)ccc1-n1cnc(C)c1` (stereo not drawn) [Compound 280], the results for the IC50 in assay [1] and in assay [2] were 191 nM and over 10000 nM, respectively.
As for `COc1cc(-c2nc3n(n2)CCOC3c2ccc(F)cc2F)ccc1-n1cnc(C)c1` (stereo not drawn) [Compound 282], the IC50 in assay [1] is 380 nM; in assay [2], over 10000 nM.
As to `COc1cc(-c2nc3n(n2)CCCCC3c2ccccc2C(F)(F)F)ccc1-n1cnc(C)c1` (stereo not drawn) [Compound 283], the IC50 in assay [1] is 78 nM; in assay [2], 7940 nM.
As to `COc1cc(-c2nc3n(n2)CCCOC3c2ccc(F)cc2)ccc1-n1cnc(C)c1` (stereo not drawn) [Compound 284], the IC50 in assay [1] is 229 nM; in assay [2], over 10000 nM.
Consider `COc1cc(-c2nc3n(n2)CCCOC3c2ccccc2C(F)(F)F)ccc1-n1cnc(C)c1` (stereo not drawn) [Compound 285], for which the IC50 in assay [1] is 76 nM; in assay [2], over 10000 nM.
With `COc1cc(-c2nc3c(-c4ccccc4Cl)cccn3n2)ccc1-n1cnc(C)c1` [Compound 286], the IC50 in assay [1] came out at 145 nM; in assay [2], 10000 nM.
Regarding `COc1cc(-c2nc3c(-c4cccc(OC(F)(F)F)c4)cccn3n2)ccc1-n1cnc(C)c1` [Compound 287], the IC50 in assay [1] is 355 nM; in assay [2] it was over 10000 nM.
Regarding `COc1cc(-c2nc3c(-c4ccccc4OC(F)(F)F)cccn3n2)ccc1-n1cnc(C)c1` [Compound 288], the IC50 was 151 nM in assay [1] and over 10000 nM in assay [2].
`COc1cc(-c2nc3c(Nc4cccc(C(F)(F)F)c4)cccn3n2)ccc1-n1cnc(C)c1` [Compound 289]: the IC50 is 708 nM in assay [1] and over 10000 nM in assay [2].
For `COc1cc(-c2nc3c(-c4ccccc4)nccn3n2)ccc1-n1cnc(C)c1` [Compound 292], the IC50 in assay [1] was 2340 nM; in assay [2] it was over 10000 nM.
On the same counts, the results for `COc1cc(-c2nc3c(-c4cccc(C(F)(F)F)c4)nccn3n2)ccc1-n1cnc(C)c1` [Compound 293] are 2340 nM and over 10000 nM.
On the same counts, the results for `COc1cc(-c2nc(-c3cc(C(F)(F)F)ccc3C)nn2C)ccc1-n1cnc(C)c1` [Compound 296] are 1510 nM and 6030 nM.
`COc1cc(-c2nc(-c3cc(Cl)ccc3C)n[nH]2)ccc1-n1cnc(C)c1` [Compound 297]: the IC50 in assay [1] was 263 nM; in assay [2], over 10000 nM.
For the compound `COc1cc(-c2nc(-c3cc(Cl)ccc3C)nn2C)ccc1-n1cnc(C)c1` [Compound 298], the IC50 in assay [1] is 3090 nM; in assay [2] it was over 10000 nM.
On to `COc1cc(-c2nc(N3CCCN(C(C)=O)CC3)n(C(C)C)n2)ccc1-n1cnc(C)c1` [Compound 301], for which the IC50 in assay [1] and in assay [2] was over 10000 nM in each case.
With `COc1cc(-c2nc3n(n2)CCOC3c2ccc(F)cc2C)ccc1-n1cnc(C)c1` (stereo not drawn) [Compound 305], the IC50 in assay [1] was 646 nM; in assay [2], over 10000 nM.
With `COc1cc(-c2nc(Nc3cc(C(=O)N(C)C)ccc3F)n(C)n2)ccc1-n1cnc(C)c1` [Compound 308], the results for the IC50 in assay [1] and in assay [2] were 1700 nM and over 10000 nM, respectively.
On to `COc1cc(-c2nc(Nc3cc(S(C)(=O)=O)ccc3F)n(C)n2)ccc1-n1cnc(C)c1` [Compound 309], for which the results for the IC50 in assay [1] and in assay [2] were 1070 nM and over 10000 nM, respectively.
For `COc1cc(-c2nc(CNc3cccc(C(F)(F)F)c3)n(C)n2)ccc1-n1cnc(C)c1` [Compound 311] the same measures were 186 nM and 7410 nM.
Turning to `COc1cc(-c2nc3n(n2)CCCC3c2c(F)cc(F)cc2F)ccc1-n1cnc(C)c1` (stereo not drawn) [Compound 312], the IC50 in assay [1] was 123 nM; in assay [2], over 10000 nM.
On to `COc1nc(-c2nc3n(n2)CCCC3c2ccc(F)cc2C)ccc1-n1cnc(C)c1` (stereo not drawn) [Compound 313], for which the 50% inhibitory concentration (IC50) was 68 nM in assay [1] and over 10000 nM in assay [2].
Turning to `COc1cc(-c2nc3n(n2)CCC[C@@H]3c2ccc(F)cc2C)ccc1-n1cnc(C)c1` [Compound 314], the IC50 in assay [1] is 288 nM; in assay [2], over 10000 nM.
As for `COc1cc(-c2nc3n(n2)CCOC3c2ccccc2C(F)(F)F)ccc1-n1cnc(C)c1` (stereo not drawn) [Compound 316], the IC50 is 661 nM in assay [1] and over 10000 nM in assay [2].
For the compound `COc1cc(-c2nc(Nc3cccc4c3OC(F)(F)O4)n(C)n2)ccc1-n1cnc(C)c1` [Compound 317], the IC50 in assay [1] came to 34 nM; in assay [2], 7940 nM.
For the compound `COc1c(-n2cnc(C)c2)ccc(-c2nc(Nc3ccccc3C)n(C)n2)c1F` [Compound 318], the IC50 in assay [1] is 240 nM; in assay [2] it was over 10000 nM.
For `Cc1cn(-c2ccc(-c3nc(Nc4cc(C(F)(F)F)ccc4F)n(C)n3)nc2C)cn1` [Compound 319] the same measures were 490 nM and over 10000 nM.
Take `Cc1cn(-c2ccc(-c3nc(Nc4ccccc4C(F)(F)F)n(C)n3)cc2C#N)cn1` [Compound 321]: the IC50 in assay [1] was 182 nM; in assay [2] it was over 15000 nM.
On to `COc1cc(-c2nc(Nc3c(C)cccc3F)n(C)n2)ccc1-n1cnc(C)c1` [Compound 323], for which the IC50 in assay [1] was 51 nM; in assay [2], over 10000 nM.
As for `COc1cc(-c2nc(Nc3ccccc3C(C)=O)n(C)n2)ccc1-n1cnc(C)c1` [Compound 324], the IC50 in assay [1] was 1320 nM; in assay [2], over 10000 nM.
`COc1cc(-c2nc(N3CCOc4ccccc43)n(C)n2)ccc1-n1cnc(C)c1` [Compound 325]: the half-inhibitory concentration (IC50) in assay [1] was 182 nM; in assay [2], over 10000 nM.
Take `COc1cc(-c2nc(-c3ccc4ccccc4n3)n(C)n2)ccc1-n1cnc(C)c1` [Compound 326]: the values for the IC50 in assay [1] and in assay [2] were 3090 nM and over 10000 nM, respectively.
For `COc1cc(-c2nc(N3CCCOc4ccccc43)n(C)n2)ccc1-n1cnc(C)c1` [Compound 327] the same measures were 1180 nM and over 10000 nM.
For `CCOc1cc(C)c(Nc2nc(-c3ccc(-n4cnc(C)c4)c(OC)c3)nn2C)cc1C(C)C` [Compound 328] the same measures were 7 nM and 145 nM.
For `COc1cc(-c2nc(C(=O)Nc3cccc(C(F)(F)F)c3)n(C)n2)ccc1-n1cnc(C)c1` [Compound 329] the same measures were 3090 nM and 851 nM.
`COCc1ccc(F)c(Nc2nc(-c3ccc(-n4cnc(C)c4)c(OC)c3)nn2C)c1` [Compound 331]: the IC50 was 56 nM in assay [1] and over 10000 nM in assay [2].
For `COc1cc(-c2nc3n(n2)CCC[C@@H]3c2ccc(F)cc2C)ccc1-n1cnc(C)c1` [Compound 332], the IC50 is 234 nM in assay [1] and over 10000 nM in assay [2].
For `COc1cc(-c2nc3n(n2)CCC[C@H]3c2ccc(F)cc2C)ccc1-n1cnc(C)c1` [Compound 333], the IC50 in assay [1] is 26 nM; in assay [2] it was over 10000 nM.
On to `COc1cc(-c2nc3n(n2)CCCC3(CO)c2ccc(F)cc2C)ccc1-n1cnc(C)c1` (stereo not drawn) [Compound 334], for which the values for the IC50 in assay [1] (Homo sapiens) and in assay [2] (Homo sapiens) were 263 nM and over 10000 nM, respectively.
In the case of `COc1cc(-c2nc(Nc3ccccc3)n(C)n2)ccc1-n1cnc(C)c1` [Compound 335], the IC50 in assay [1] was 200 nM; in assay [2], over 10000 nM.
For `COc1cc(-c2nc3n(n2)CCCC3c2ccccc2C(F)(F)F)ccc1-n1cnc(C)c1` (stereo not drawn) [Compound 336], the IC50 is 129 nM in assay [1] and over 10000 nM in assay [2].
As to `COc1cc(-c2nc3n(n2)CCC[C@@H]3c2cc(C(F)(F)F)ccc2C)ccc1-n1cnc(C)c1` [Compound 339], the half-maximal inhibitory concentration (IC50) is 155 nM in assay [1] and over 10000 nM in assay [2].
In the case of `COc1cc(-c2nc3n(n2)CCC[C@H]3c2cc(C(F)(F)F)ccc2C)ccc1-n1cnc(C)c1` [Compound 341], the IC50 in assay [1] turned out to be 12 nM; in assay [2], 7760 nM.
For the compound `COc1nc(-c2nc3n(n2)CCC[C@@H]3c2cc(C(F)(F)F)ccc2C)ccc1-n1cnc(C)c1` [Compound 342], the IC50 was 162 nM in assay [1] and over 10000 nM in assay [2].
Turning to `COc1cc(-c2nc3n(n2)CCCC3c2ccccc2C)ccc1-n1cnc(C)c1` (stereo not drawn) [Compound 344], the figures for the IC50 in assay [1] and in assay [2] were 52 nM and over 10000 nM, respectively.

Source of the values: patent publication US8946266B2, “Substituted triazole and imidazole derivatives as gamma secretase modulators” (Janssen Pharmaceuticals, Inc., priority 2009, dated 2015).
